Results from US20250201546A1, “METHOD FOR PROCESSING SUBSTRATE, KIT FOR PROCESSING SUBSTRATE, AND METHOD FOR MANUFACTURING SEMICONDUCTOR SUBSTRATE” (TOKYO OHKA KOGYO CO., LTD., priority 2023, published 2025).

Experiment: Hansen solubility parameter (SP value and terms) of reagents
Format: physicochemical
Design: unit: MPa^0.5
Conditions: SP^2=δD^2+δP^2+δH^2
Description: The SP value of Hansen solubility parameter herein is a value obtained by dividing the solubility parameter introduced by Hildebrand into three parameters, the dispersion term OD, the polarity term OP, and the hydrogen bond term OH, and plotting a point in a three-dimensional space (Hansen space, HSP space).
The dispersion term δD represents the effect due to dispersion force, the polarity term δP represents the effect due to dipole-dipole force, and the hydrogen bond term OH represents the effect due to hydrogen bond force. […]
δD: The energy derived from dispersion forces between molecules (the dispersion term) δP: The energy derived from polar forces between molecules (the polarity term) δH: The energy derived from hydrogen bond forces between molecules (the hydrogen bond term) The unit of each of the terms is MPa^0.5.
There is a relationship between Hildebrand's SP value and Hansen's HSP as shown below.
(Hildebrand's SP)^2=δD^2+δP^2+δH^2
Suitable examples of the silane coupling agent having a SP value of 15 or more may include the followings. Needless to say, the silane coupling agent used in the present embodiment is not limited to those below.

Row | SMILES | SP value
1 | CO[Si](CCCN)(OC)OC [APTMS, 3-aminopropyltrimethoxysilane] | 15.8
2 | CO[Si](CCCNCCCCCCN)(OC)OC [AHAPTMS, 3-(6-aminohexylamino) propyltrimethoxysilane] | 15.3
3 | CO[Si](C)(OC)OC [MTMS, methyltrimethoxysilane] | 15.2
4 | CO[Si](CCCNCCN)(OC)OC [AEAPTMS, 3-(2-aminoethylamino) propyltrimethoxysilane] | 16.2
5 | CCO[Si](CCCN)(OCC)OCC [APTES, 3-aminopropyltriethoxysilane] | 15.2
6 | CCO[Si](CCCNCCN)(OCC)OCC [AEAPTES, 3-(2-aminoethylamino) propyltriethoxysilane] | 15.6
